This assay has as its system human cervix cancer cells Hela. Put plainly: Plk Cell Proliferation Inhibition Assay (CCK8, 72 hours). In kind it is cell-based. To be noted: Hela cells highly expressing Plk. The source says:
The following in vitro assay is to determine the activity of the compounds of the present invention for inhibiting the proliferation of human cervix cancer cells Hela, which has high expression of Plk.
The in vitro cellular assay described here is to determine the activity of the tested compounds for inhibiting the proliferation of cancer cells, which has high expression of Plk. The activity is represented by the […]. The general procedures for the assay are given as follows: The Hela cells highly expressing Plk (Institute of biochemistry and cell biology) were seeded to 96-well cell culture plate at a suitable concentration (exp 3000 cells/ml medium). The cells then were cultured in carbon dioxide (CO2) incubator and grew overnight. Then, the cell culture medium was replaced by fresh one with tested compounds added in it at serial concentrations (general 7 to 9 concentrations). Then the cells were put back to the incubator and cultured for continuous 72 hours. 72 hours later, the activity of the tested compounds for inhibiting the cell proliferation was determined by using CCK8 (cell counting kit-8, Dojindo, NO:CK04) method. IC50 value on tested cells were calculated by the data of inhibition rates of serial concentrations of the tested compounds.

pIC50: −log10 of the molar value.

Broadly, the pIC50 is the IC50 on a negative log10 scale, so that one unit is a factor of ten. Higher therefore signals a low IC50.

`CC[C@@H]1C(=O)N(C)c2cnc(Nc3ccc(C(=O)NCC4CN(C)CCO4)c4c3OCC4)nc2N1C1CCCC1` (stereo partly drawn) [Example 2, 7-[[(7R)-8-cyclopentyl-7-ethyl-5-methyl-6-oxo-7H-pteridin-2-yl]amino]-N-[(4-methylmorpholin-2-yl)methyl]-2,3-dihydrobenzofuran-4-carboxamide]: the pIC50 is 8.10.
For `CC[C@@H]1C(=O)N(C)c2cnc(Nc3ccc(C(=O)N[C@@H]4C[C@@H](OC(C)=O)[C@H](N(C)C)C[C@H]4OC(C)=O)c4c3OCC4)nc2N1C1CCCC1` [Example 3, [(1R,2R,4R,5R)-4-Acetoxy-2-[[7-[[(7R)-8-cyclopentyl-7-ethyl-5-methyl-6-oxo-7H-pteridin-2-yl]amino]-2,3-dihydrobenzofuran-4-carbonyl]amino]-5-dimethylamino-cyclohexyl]acetate], the pIC50 is 8.15.
Regarding `CC[C@@H]1C(=O)N(C)c2cnc(Nc3ccc(C(=O)NC4CCN(C)CC4)c4c3OC(C)(C)C4)nc2N1C1CCCC1` [Example 4, 7-[[(7R)-8-Cyclopentyl-7-ethyl-5-methyl-6-oxo-7H-pteridin-2-yl]amino]-2,2-dimethyl-N-(1-methyl-4-piperidyl)-3H-benzofuran-4-carboxamide], the pIC50 was 8.70.
As for `CC[C@@H]1C(=O)N(C)c2cnc(Nc3ccc(C(=O)N[C@@H]4C[C@@H]5CN(C)C[C@@H]5C4)c4c3OCC4)nc2N1C1CCCC1` [Example 5], the pIC50 is 9.00.
The result for `CC[C@@H]1C(=O)N(C)c2cnc(Nc3ccc(C(=O)N[C@@H]4C[C@@H]5CN(C)C[C@@H]5C4)c4c3OC(C)(C)C4)nc2N1C1CCCC1` [Example 6, (cis-exo)-N-[2-Methyl-3,3a,4,5,6,6a-hexahydro-1H-cyclopenta[c]pyrrol-5-yl]-7-[[(7R)-8-cyclopentyl-7-ethyl-5-methyl-6-oxo-7H-pteridin-2-yl]amino]-2,2-dimethyl-3H-benzofuran-4-carboxamide] reads 8.70.
Molecule `CC[C@@H]1C(=O)N(C)c2cnc(Nc3ccc(C(=O)NC[C@H](O)CN4CCN(CC5CC5)CC4)c4c3OCC4)nc2N1C1CCCC1` [Example 7, 7-[[(7R)-8-Cyclopentyl-7-ethyl-5-methyl-6-oxo-7H-pteridin-2-yl]amino]-N-[(2S)-3-[4-(cyclopropylmethyl)piperazin-1-yl]-2-hydroxy-propyl]-2,3-dihydrobenzofuran-4-carboxamide] had a pIC50 of 8.52.
Regarding `CC[C@@H]1C(=O)N(C)c2cnc(Nc3ccc(C(=O)NC[C@H](O)CN4CCN(C)CC4)c4c3OCC4)nc2N1C1CCCC1` [Example 8, 7-[[(7R)-8-Cyclopentyl-7-ethyl-5-methyl-6-oxo-7H-pteridin-2-yl]amino]-N-[(2S)-2-hydroxy-3-(4-methylpiperazin-1-yl)propyl]-2,3-dihydrobenzofuran-4-carboxamide], the pIC50 is 8.52.
On to `CC[C@@H]1C(=O)N(C)c2cnc(Nc3ccc(C(=O)N[C@H]4C[C@@H]5CN(C)C[C@@H]5C4)c4c3OC(C)(C)C4)nc2N1C1CCCC1` [Example 9, (cis-endo)-N-[2-Methyl-3,3α,4,5,6,6α-hexahydro-1H-cyclopenta[c]pyrrol-5-yl]-7-[[(7R)-8-cyclopentyl-7-ethyl-5-methyl-6-oxo-7H-pteridin-2-yl]amino]-2,2-dimethyl-3H-benzofuran-4-carboxamide], for which the pIC50 was 8.70.
As to `CC[C@@H]1C(=O)N(C)c2cnc(Nc3ccc(C(=O)N[C@H]4C[C@@H]5CN(CC6CC6)C[C@@H]5C4)c4c3OC(C)(C)C4)nc2N1C1CCCC1` [Example 10, N-[(cis-endo)-2-(Cyclopropylmethyl)-3,3a,4,5,6,6a-hexahydro-1H-cyclopenta[c]pyrrol-5-yl]-7-[[(7R)-8-cyclopentyl-7-ethyl-5-methyl-6-oxo-7H-pteridin-2-yl]amino]-2,2-dimethyl-3H-benzofuran-4-carboxamide], the pIC50 was 8.30.
In turn, `CC[C@@H]1C(=O)N(C)c2cnc(Nc3ccc(C(=O)N[C@H]4C[C@@H]5CN(C)C[C@@H]5C4)c4c3OCC4)nc2N1C1CCCC1` [Example 11, (cis-endo)-N-[2-Methyl-3,3a,4,5,6,6a-hexahydro-1H-cyclopenta[c]pyrrol-5-yl]-7-[[(7R)-8-cyclopentyl-7-ethyl-5-methyl-6-oxo-7H-pteridin-2-yl]amino]-2,3-dihydrobenzofuran-4-carboxamide] had a pIC50 of 9.00.
Molecule `CC[C@@H]1C(=O)N(C)c2cnc(Nc3ccc(C(=O)N[C@H]4CC[C@@H](N5CCN(CC6CC6)CC5)CC4)c4c3OCC4)nc2N1C1CCCC1` [Example 12, 7-[[(7R)-8-Cyclopentyl-7-ethyl-5-methyl-6-oxo-7H-pteridin-2-yl]amino]-N-[(cis)-4-[4-(cyclopropylmethyl)piperazin-1-yl]cyclohexyl]-2,3-dihydrobenzofuran-4-carboxamide] showed a pIC50 of 9.10.
For `CC[C@@H]1C(=O)N(C)c2cnc(Nc3ccc(C(=O)N[C@H]4C[C@@H]5CN(CC6CC6)C[C@@H]5C4)c4c3OCC4)nc2N1C1CCCC1` [Example 13, (cis-endo)-N-[2-(Cyclopropylmethyl)-3,3a,4,5,6,6a-hexahydro-1H-cyclopenta[c]pyrrol-5-yl]-7-[[(7R)-8-cyclopentyl-7-ethyl-5-methyl-6-oxo-7H-pteridin-2-yl]amino]-2,3-dihydrobenzofuran-4-carboxamide], the pIC50 was 9.00.
The result for `CC[C@@H]1C(=O)N(C)c2cnc(Nc3ccc(C(=O)N[C@@H]4C[C@H]5CCN(C)C[C@H]5C4)c4c3OCC4)nc2N1C1CCCC1` [Example 14, (cis-endo)-N-[2-Methyl-1,3,3a,4,5,6,7,7a-octahydrocyclopenta[c]pyridin-6-yl]-7-[[(7R)-8-cyclopentyl-7-ethyl-5-methyl-6-oxo-7H-pteridin-2-yl]amino]-2,3-dihydrobenzofuran-4-carboxamide] reads 9.00; that for `CC[C@@H]1C(=O)N(C)c2cnc(Nc3ccc(C(=O)NC[C@@H]4CN(C)CCO4)c4c3OCC4)nc2N1C1CCCC1` [Example 15, 7-[[(7R)-8-Cyclopentyl-7-ethyl-5-methyl-6-oxo-7H-pteridin-2-yl]amino]-N-[[(2R)-4-methylmorpholin-2-yl]methyl]-2,3-dihydrobenzofuran-4-carboxamide], 8.52; that for `CC[C@@H]1C(=O)N(C)c2cnc(Nc3ccc(C(=O)N[C@H]4CC[C@H](N5CCN(CC6CC6)CC5)CC4)c4c3OC(C)(C)C4)nc2N1C1CCCC1` [Example 16, 7-[[(7R)-8-Cyclopentyl-7-ethyl-5-methyl-6-oxo-7H-pteridin-2-yl]amino]-N-[(trans)-4-[4-(cyclopropylmethyl)piperazin-1-yl]cyclohexyl]-2,2-dimethyl-3H-benzofuran-4-carboxamide], 7.52.
Regarding `CC[C@@H]1C(=O)N(C)c2cnc(Nc3ccc(C(=O)N[C@H]4CC[C@H](N5CCN(C)CC5)CC4)c4c3OC(C)(C)C4)nc2N1C1CCCC1` [Example 17, 7-[[(7R)-8-Cyclopentyl-7-ethyl-5-methyl-6-oxo-7H-pteridin-2-yl]amino]-2,2-dimethyl-N-[(trans)-4-(4-methylpiperazin-1-yl)cyclohexyl]-3H-benzofuran-4-carboxamide], the negative logarithm of the IC50 (pIC50) was 8.00.
`CC[C@@H]1C(=O)N(C)c2cnc(Nc3ccc(C(=O)N[C@H]4CC[C@H](N5CCN(C)CC5)CC4)c4c3OCC4)nc2N1C1CCCC1` [Example 19, 7-[[(7R)-8-Cyclopentyl-7-ethyl-5-methyl-6-oxo-7H-pteridin-2-yl]amino]-N-[(trans)-4-(4-methylpiperazin-1-yl)cyclohexyl]-2,3-dihydrobenzofuran-4-carboxamide] showed a pIC50 of 8.52.
Molecule `CC[C@@H]1C(=O)N(C)c2cnc(Nc3ccc(C(=O)NC[C@@H](O)CN4CCN(C)CC4)c4c3OC(C)(C)C4)nc2N1C1CCCC1` [Example 20, 7-[[(7R)-8-Cyclopentyl-7-ethyl-5-methyl-6-oxo-7H-pteridin-2-yl]amino]-N-[(2R)-3-(4-methylpiperazin-1-yl)-2-hydroxy-propyl]-2,2-dimethyl-3H-benzofuran-4-carboxamide] showed a pIC50 of 8.10.
`CC[C@@H]1C(=O)N(C)c2cnc(Nc3ccc(C(=O)NC[C@H](O)CN4CCN(C)CC4)c4c3OC(C)(C)C4)nc2N1C1CCCC1` [Example 21, 7-[[(7R)-8-Cyclopentyl-7-ethyl-5-methyl-6-oxo-7H-pteridin-2-yl]amino]-N-[(2S)-3-(4-methylpiperazin-1-yl)-2-hydroxy-propyl]-2,2-dimethyl-3H-benzofuran-4-carboxamide] had a pIC50 of 8.15.
In turn, `CC[C@@H]1C(=O)N(C)c2cnc(Nc3ccc(C(=O)NC4CCN(C)CC4)c4c3OCC4)nc2N1C(C)C` [Example 22, 7-[[(7R)-7-Ethyl-8-isopropyl-5-methyl-6-oxo-7H-pteridin-2-yl]amino]-N-(1-methyl-4-piperidyl)-2,3-dihydrobenzofuran-4-carboxamide] gave a pIC50 of 8.70.
Consider `CC[C@@H]1C(=O)N(C)c2cnc(Nc3ccc(C(=O)N[C@H]4C[C@@H]5CN(C)C[C@@H]5C4)c4c3OCC4)nc2N1C(C)C` [Example 24, (cis-endo)-N-[2-Methyl-3,3a,4,5,6,6a-hexahydro-1H-cyclopenta[c]pyrrol-5-yl]-7-[[(7R)-7-ethyl-8-isopropyl-5-methyl-6-oxo-7H-pteridin-2-yl]amino]-2,3-dihydrobenzofuran-4-carboxamide], for which the pIC50 is 8.70.
In turn, `CC[C@@H]1C(=O)N(C)c2cnc(Nc3ccc(C(=O)NC[C@@H](O)CN4CCN(C)CC4)c4c3OCC4)nc2N1C1CCCC1` [Example 25, 7-[[(7R)-8-Cyclopentyl-7-ethyl-5-methyl-6-oxo-7H-pteridin-2-yl]amino]-N-[(2R)-2-hydroxy-3-(4-methylpiperazin-1-yl)propyl]-2,3-dihydrobenzofuran-4-carboxamide] gave a pIC50 of 8.52.
